Results from patent US9255295B2, “Method for evaluating the sensitizing potential of a test compound” (IMMUNOSEARCH, priority 2010, dated 2016).

Key:
[1] = test system: genes specific for sensitization (BRAK, CTSS, DAPK2, FABP4, HSP27, IL18, HSP90, IL1R2, TPSAB1, CXCR1, DEFB1, DHFR, EHF, IVL, KRT4, MELANA, NGAL, PDZK1IP1, PI3 …); experiment: Expression of the other (non-ARE) sensitization-specific genes in EPISKIN reconstructed skin (quantitative RT-PCR); type: cell-based, human; settings: for BRAK expression / DHFR expression / HSP90 expression / IL18 expression / KRT4 expression / MELANA expression / PDZK1iP1 expression / SERPINB3 expression: compared to the control
[2] = test system: EPISKIN model; experiment: Sensitizing power: sensitizing potential retested at successive dilutions in the EPISKIN model

Q: Which “CTSS grade (NUMBER OF GENES)” value ([1]; 10%) does the source give for CC=Cc1ccc(O)c(OC)c1 [Isoeugenol] here?
A: 1 (If the expression is greater than 1.3 compared to the control, a grade of 11s given)

Q: What about the “CXCR1 expression compared to control” value ([1]; 10%) of the same compound?
A: 1.6

Q: And the “CXCR1 grade (NUMBER OF GENES)” value ([1]; 10%)?
A: 1 (If the expression is greater than 1.3 compared to the control, a grade of 11s given)

Q: What about the “DAPK2 expression compared to control” value ([1]; 10%) of the same compound?
A: 0.9

Q: And the “DAPK2 grade (NUMBER OF GENES)” value ([1]; 10%)?
A: 0 (if this expression is lower, the grade is 0)

Q: And the “DEFB1 expression compared to control” value ([1]; 10%)?
A: 1.5

Q: And the “DEFB1 grade (NUMBER OF GENES)” value ([1]; 10%)?
A: 1 (If the expression is greater than 1.3 compared to the control, a grade of 11s given)

Q: And the “DHFR NUMBER OF GENES grade” value ([1]; 10%)?
A: 0 (if this expression is lower, the grade is 0)

Q: And the “EHF expression compared to control” value ([1]; 10%)?
A: 1.4

Q: What about the “EHF grade (NUMBER OF GENES)” value ([1]; 10%) of the same compound?
A: 1 (If the expression is greater than 1.3 compared to the control, a grade of 11s given)

Q: What about the “FABP4 expression compared to control” value ([1]; 10%) of the same compound?
A: 1.2

Q: And the “FABP4 grade (NUMBER OF GENES)” value ([1]; 10%)?
A: 0 (if this expression is lower, the grade is 0)

Q: And the “HSP27 expression compared to control” value ([1]; 10%)?
A: 0.9

Q: And the “HSP27 grade (NUMBER OF GENES)” value ([1]; 10%)?
A: 0 (if this expression is lower, the grade is 0)

Q: And the “HSP90 NUMBER OF GENES grade” value ([1]; 10%)?
A: 1 (If the expression is greater than 1.3 compared to the control, a grade of 11s given)

Q: What about the “IL18 NUMBER OF GENES grade” value ([1]; 10%) of the same compound?
A: 0 (if this expression is lower, the grade is 0)

Q: What about the “IVL expression compared to control” value ([1]; 10%) of the same compound?
A: 1.9

Q: And the “IVL grade (NUMBER OF GENES)” value ([1]; 10%)?
A: 1 (If the expression is greater than 1.3 compared to the control, a grade of 11s given)

Q: What about the “KRT4 NUMBER OF GENES grade” value ([1]; 10%) of the same compound?
A: 0 (if this expression is lower, the grade is 0)

Q: And the “MELANA NUMBER OF GENES grade” value ([1]; 10%)?
A: 0 (if this expression is lower, the grade is 0)

Q: What about the “NGAL expression compared to control” value ([1]; 10%) of the same compound?
A: 2.1

Q: What about the “NGAL grade (NUMBER OF GENES)” value ([1]; 10%) of the same compound?
A: 1 (If the expression is greater than 1.3 compared to the control, a grade of 11s given)

Q: What about the “P13 expression compared to control” value ([1]; 10%) of the same compound?
A: 1.4

Q: And the “P13 grade (NUMBER OF GENES)” value ([1]; 10%)?
A: 1 (If the expression is greater than 1.3 compared to the control, a grade of 11s given)

Q: What about the “PDZK1iP1 NUMBER OF GENES grade” value ([1]; 10%) of the same compound?
A: 0 (if this expression is lower, the grade is 0)

Q: And the “SENS >1.3 (number of genes)” value ([1]; 10%)?
A: 10

Q: And the “SERPINB3 NUMBER OF GENES grade” value ([1]; 10%)?
A: 0 (if this expression is lower, the grade is 0)

Q: What about the “TOTAL SENS (number of genes)” value ([1]; 10%) of the same compound?
A: 10

Q: What about the BRAK expression ([1]; 10%) of the same compound?
A: 0.8

Q: What about the DHFR expression ([1]; 10%) of the same compound?
A: 0.9

Q: And the HSP90 expression ([1]; 10%)?
A: 1.3

Q: What about the IL18 expression ([1]; 10%) of the same compound?
A: 0.7

Q: And the KRT4 expression ([1]; 10%)?
A: 1.0

Q: What about the MELANA expression ([1]; 10%) of the same compound?
A: 0.6

Q: And the PDZK1iP1 expression ([1]; 10%)?
A: 1.0

Q: And the SERPINB3 expression ([1]; 10%)?
A: 1.1

Q: What about the “BRAK NUMBER OF GENES grade” value ([1]; 50%) of the same compound?
A: 0 (if this expression is lower, the grade is 0)

Q: What about the “CTSS expression compared to control” value ([1]; 50%) of the same compound?
A: 1.4

Q: What about the “CTSS grade (NUMBER OF GENES)” value ([1]; 50%) of the same compound?
A: 1 (If the expression is greater than 1.3 compared to the control, a grade of 11s given)

Q: What about the “CXCR1 expression compared to control” value ([1]; 50%) of the same compound?
A: 2.6

Q: And the “CXCR1 grade (NUMBER OF GENES)” value ([1]; 50%)?
A: 1 (If the expression is greater than 1.3 compared to the control, a grade of 11s given)

Q: And the “DAPK2 expression compared to control” value ([1]; 50%)?
A: 1.4

Q: And the “DAPK2 grade (NUMBER OF GENES)” value ([1]; 50%)?
A: 1 (If the expression is greater than 1.3 compared to the control, a grade of 11s given)

Q: What about the “DEFB1 expression compared to control” value ([1]; 50%) of the same compound?
A: 2.1

Q: And the “DEFB1 grade (NUMBER OF GENES)” value ([1]; 50%)?
A: 1 (If the expression is greater than 1.3 compared to the control, a grade of 11s given)

Q: What about the “DHFR NUMBER OF GENES grade” value ([1]; 50%) of the same compound?
A: 0 (if this expression is lower, the grade is 0)

Q: And the “EHF expression compared to control” value ([1]; 50%)?
A: 2.0

Q: What about the “EHF grade (NUMBER OF GENES)” value ([1]; 50%) of the same compound?
A: 1 (If the expression is greater than 1.3 compared to the control, a grade of 11s given)

Q: And the “FABP4 expression compared to control” value ([1]; 50%)?
A: 1.8

Q: What about the “FABP4 grade (NUMBER OF GENES)” value ([1]; 50%) of the same compound?
A: 1 (If the expression is greater than 1.3 compared to the control, a grade of 11s given)

Q: What about the “HSP27 expression compared to control” value ([1]; 50%) of the same compound?
A: 1.2

Q: What about the “HSP27 grade (NUMBER OF GENES)” value ([1]; 50%) of the same compound?
A: 0 (if this expression is lower, the grade is 0)

Q: And the “HSP90 NUMBER OF GENES grade” value ([1]; 50%)?
A: 1 (If the expression is greater than 1.3 compared to the control, a grade of 11s given)

Q: And the “IL18 NUMBER OF GENES grade” value ([1]; 50%)?
A: 0 (if this expression is lower, the grade is 0)

Q: And the “IVL expression compared to control” value ([1]; 50%)?
A: 2.8

Q: What about the “IVL grade (NUMBER OF GENES)” value ([1]; 50%) of the same compound?
A: 1 (If the expression is greater than 1.3 compared to the control, a grade of 11s given)

Q: What about the “KRT4 NUMBER OF GENES grade” value ([1]; 50%) of the same compound?
A: 0 (if this expression is lower, the grade is 0)

Q: And the “MELANA NUMBER OF GENES grade” value ([1]; 50%)?
A: 0 (if this expression is lower, the grade is 0)

Q: And the “NGAL expression compared to control” value ([1]; 50%)?
A: 2.7

Q: And the “NGAL grade (NUMBER OF GENES)” value ([1]; 50%)?
A: 1 (If the expression is greater than 1.3 compared to the control, a grade of 11s given)

Q: What about the “P13 expression compared to control” value ([1]; 50%) of the same compound?
A: 1.7

Q: And the “P13 grade (NUMBER OF GENES)” value ([1]; 50%)?
A: 1 (If the expression is greater than 1.3 compared to the control, a grade of 11s given)

Q: And the “PDZK1iP1 NUMBER OF GENES grade” value ([1]; 50%)?
A: 0 (if this expression is lower, the grade is 0)

Q: And the “SENS >1.3 (number of genes)” value ([1]; 50%)?
A: 13

Q: What about the “SERPINB3 NUMBER OF GENES grade” value ([1]; 50%) of the same compound?
A: 1 (If the expression is greater than 1.3 compared to the control, a grade of 11s given)

Q: And the “TOTAL SENS (number of genes)” value ([1]; 50%)?
A: 13

Q: And the BRAK expression ([1]; 50%)?
A: 0.6

Q: What about the DHFR expression ([1]; 50%) of the same compound?
A: 0.9

Q: What about the HSP90 expression ([1]; 50%) of the same compound?
A: 1.7

Q: And the IL18 expression ([1]; 50%)?
A: 0.8

Q: And the KRT4 expression ([1]; 50%)?
A: 1.2

Q: And the MELANA expression ([1]; 50%)?
A: 0.4

Q: What about the PDZK1iP1 expression ([1]; 50%) of the same compound?
A: 1.1

Q: And the SERPINB3 expression ([1]; 50%)?
A: 1.5

Q: And the “sensitizing potential (conclusion)” value ([2]; 0.1%)?
A: Sensitizing

Q: And the “sensitizing potential (conclusion)” value ([2]; 1%)?
A: Sensitizing

Q: And the “sensitizing potential (conclusion)” value ([2]; 10%)?
A: Sensitizing

Q: What about the “sensitizing potential (conclusion)” value ([2]; 50%) of the same compound?
A: Sensitizing

Q: And the “sensitizing power (class)” value ([2]; from successive dilutions)?
A: MODERATE
